# Assay results from patent US8618287B2, “Derivatives of triazines and uracils, their preparation and their application in human therapeutics” (Pierre Fabre Medicament, priority 2008, dated 2013).
# Molecular target: T1, Human SCD-1 (Homo sapiens, UniProt O00767)
# T1 construct: adding 125 μg of microsomal fraction of HepG2 cells; host or cells: HepG2 human hepatocarcinoma cells (microsomal fraction)
# T1 sequence (O00767 1-359): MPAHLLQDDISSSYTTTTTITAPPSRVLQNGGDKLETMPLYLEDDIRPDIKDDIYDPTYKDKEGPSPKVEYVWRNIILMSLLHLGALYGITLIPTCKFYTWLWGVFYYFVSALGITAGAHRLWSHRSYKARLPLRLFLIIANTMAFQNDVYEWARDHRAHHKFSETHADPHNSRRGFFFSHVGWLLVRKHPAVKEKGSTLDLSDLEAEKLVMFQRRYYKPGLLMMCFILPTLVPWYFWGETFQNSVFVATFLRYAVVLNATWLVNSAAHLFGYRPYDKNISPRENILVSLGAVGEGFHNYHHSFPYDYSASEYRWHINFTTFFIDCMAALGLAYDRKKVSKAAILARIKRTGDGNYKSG
# Test: Human SCD-1 enzymatic activity from microsomes of HepG2 cells (conversion of stearic acid into oleic acid)
# Format: biochemical
# Conditions: 10 μM compound; microsomal fraction of HepG2 cells; relative to carrier 0.1% DMSO; read-out: HSCD-1 (HEPG2) % inh. (10 μM)
# Protocol: In vitro: Human SCD-1 enzymatic activity from microsomes of HepG2 cells after treatment with inhibitory compounds (inhibition %).
# Human hepatocarcinoma HepG2 cells (ATCC, HB-8065) are grown to confluence and then trypsinized. The cell pellet is taken up in 10 mM Tris buffer (pH 7.4), saccharose (250 mM) DTT (1 mM) and then the cells are lyzed by sonication. The microsomes are obtained after centrifugation at 10,000 g for 20 minutes a 4° C. followed by centrifugation of the supernatant at 100,000 g for 60 minutes a 4° C. The pellet is taken up in 10 mM Tris buffer (pH 7.4) saccharose (250 mM) at 4° C. and the microsomal proteins are assayed and stored at −196° C. (liquid nitrogen).
# The enzymatic reaction measures the conversion of stearic acid (a C18:0 fatty acid) into oleic acid (C18:1 fatty acid) by SCD-1. The enzymatic reaction is started by adding 125 μg of microsomal fraction of HepG2 cells to tubes (total reaction volume of 500 μl) containing 62 μM of stearic acid (45 μM of stearic acid and 17 μM of [^14C] stearic acid) in a phosphate buffer at 100 mM (pH 7.16) with 7.2 mM of ATP, 0.54 mM of CoA, 6 mM of MgCl2, 0.8 mM of NADH and the inhibitory compound or the carrier (0.1% DMSO). The tubes are incubated for 20 minutes at 37° C. and the enzymatic reaction is then stopped by adding KOH (12%) and saponification for 30 minutes at 80° C. After acidification (3N HCl), the fatty acids are extracted twice with ethyl ether, evaporated under nitrogen before being taken up with a methanol/dichloromethane (3:1) mixture. The product of the reaction (C18:1) is separated from the substrate of the reaction (C18:0) by HPLC (Perkin Elmer, C18 reverse phase column) coupled to a on-line radioactivity detector (FlowOne). Enzymatic activity is calculated in picomoles of stearic acid converted into oleic acid per minute and per mg of protein. For each inhibitory compound, an inhibition % is determined relatively to the reference enzymatic activity (carrier 0.1% DMSO). Sterculic acid is the reference inhibitory compound (Gomez F. E., Bauman D. E., Ntambi J. M., Fox B. G. Effects of sterculic acid on stearoyl-CoA desaturase in differentiating […] adipocytes. Biochem Biophys Res Commun. 300 316-326 (2003)).
row,SMILES,inhibition at 10 µM [%]
1,"CCOCCn1nc(N2CCC(Oc3ccccc3C(F)(F)F)CC2)c(=O)n(C)c1=O [Example 15, 2-(2-ethoxy-ethyl)-4-methyl-6-[4-(2-trifluoromethyl-phenoxy)-piperidin-1-yl]-2H-[1,2,4]triazine-3,5-dione]",74
2,"Cn1c(=O)c(N2CCC(Oc3ccccc3Cl)CC2)nn(CCC#N)c1=O [Example 23, 3-{6-[4-(2-chloro-phenoxy)-piperidin-1-yl]-4-methyl-3,5-dioxo-4,5-dihydro-3H-[1,2,4]triazin-2-yl}-propionitrile]",73
3,"Cn1c(=O)[nH]nc(N2CCN(Cc3ccc(F)cc3C(F)(F)F)CC2)c1=O [Example 71, 6-[4-(4-fluoro-2-trifluoromethyl-benzyl)-piperazin-1-yl]-4-methyl-2H-[1,2,4]triazine-3,5-dione]",50
4,"CNC(=O)Cn1nc(N2CCC(Oc3ccccc3C(F)(F)F)CC2)c(=O)n(C)c1=O [Example 14, N-methyl-2-{4-methyl-3,5-dioxo-6-[4-(2-trifluoromethyl-phenoxy)-piperidin-1-yl]-4,5-dihydro-3H-[1,2,4]triazin-2-yl}-acetamide]",74
5,"CCCCCCCn1c(=O)c(N2CCC(Oc3ccccc3C(F)(F)F)CC2)nn(CCC#N)c1=O [Example 12, 3-{4-heptyl-3,5-dioxo-6-[4-(2-trifluoromethyl-phenoxy)-piperidin-1-yl]-4,5-dihydro-3H-[1,2,4]triazin-2-yl}-propionitrile]",71

# More lines, now with the values ahead:
row,inhibition at 10 µM [%],SMILES
1,84,"Cn1c(=O)c(N2CCN(C(=O)c3cc(F)ccc3C(F)(F)F)CC2)nn(CCCC(F)(F)F)c1=O [Example 47, 6-[4-(5-fluoro-2-trifluoromethyl-benzoyl)-piperazin-1-yl]-4-methyl-2-(4,4,4-trifluoro-butyl)-2H-[1,2,4]triazine-3,5-dione]"
2,66,"Cn1c(=O)[nH]nc(N2CCN(C(=O)c3ccc(F)cc3C(F)(F)F)CC2)c1=O [Example 70, 6-[4-(4-fluoro-2-trifluoromethyl-benzoyl)-piperazin-1-yl]-4-methyl-2H-[1,2,4]triazine-3,5-dione]"
3,90,"Cn1c(=O)c(N2CCN(C(=O)c3ccccc3C(F)(F)F)CC2)nn(CCCC(F)(F)F)c1=O [Example 3, 4-methyl-2-(4,4,4-trifluoro-butyl)-6-[4-(2-trifluoromethyl-benzoyl)-piperazin-1-yl]-2H-[1,2,4]triazine-3,5-dione]"

# System: not given
# Test: not given
# Conditions: not given
row,SMILES,melting point [°C]
1,"COc1ccccc1OC1CCN(c2nn(C)c(=O)n(C)c2=O)CC1 [Example 34, 6-[4-(2-methoxy-phenoxy)-piperidin-1-yl]-2,4-dimethyl-2H-[1,2,4]triazine-3,5-dione]",78
2,"Cn1nc(N2CCN(C(=O)/C=C/c3ccc([N+](=O)[O-])cc3)CC2)c(=O)n(C)c1=O [Example 50, 2,4-dimethyl-6-{4-[(E)-3-(4-nitro-phenyl)-acryloyl]-piperazin-1-yl}-2H-[1,2,4]triazine-3,5-dione]",198
3,Cn1cc(N2CCN(Cc3ccccc3)CC2)c(=O)n(C)c1=O,162
4,"Cn1nc(N2CCC(Oc3ccccc3C(F)(F)F)C2)c(=O)n(C)c1=O (centres unmarked) [Example 37, 2,4-dimethyl-6-[3-(2-trifluoromethyl-phenoxy)-pyrrolidin-1-yl]-2H-[1,2,4]triazine-3,5-dione]",84
5,"Cn1nc(N2CCC(C(=O)c3ccc(F)cc3)CC2)c(=O)n(C)c1=O [Example 36, 6-[4-(4-fluoro-benzoyl)-piperidin-1-yl]-2,4-dimethyl-2H-[1,2,4]triazine-3,5-dione]",129
6,"Cn1nc(N2CCC(Oc3cc(F)ccc3Cl)CC2)c(=O)[nH]c1=O [Example 90, 6-(4-(2-chloro-5-fluorophenoxy)piperidin-1-yl)-2-methyl-1,2,4-triazine-3,5(2H, 4H)-dione]",172
7,"Cn1c(=O)c(N2CCC(Oc3ccccc3C(F)(F)F)CC2)nn(C2Cc3ccccc3C2=O)c1=O (centres unmarked) [Example 87, 4-methyl-2-(1-oxo-indan-2-yl)-6-[4-(2-trifluoromethyl-phenoxy)-piperidin-1-yl]-2H-[1,2,4]triazine-3,5-dione]",110
8,"Cn1nc(N2CCC(Oc3ccccc3)C2)c(=O)n(C)c1=O (centres unmarked) [Example 38, 2,4-dimethyl-6-(3-phenoxy-pyrrolidin-1-yl)-2H-[1,2,4]triazine-3,5-dione]",80
9,"O=c1[nH]nc(N2CCC(Oc3ccccc3C(F)(F)F)CC2)c(=O)n1CCCC(F)(F)F [Example 72, 4-(4,4,4-trifluoro-butyl)-6-[4-(2-trifluoromethyl-phenoxy)-piperidin-1-yl]-2H-[1,2,4]triazine-3,5-dione]",102

# Continued, values first:
row,melting point [°C],SMILES
1,90,"Cn1nc(N2CCN(C(=O)c3ccccc3C(F)(F)F)C(=O)C2)c(=O)n(C)c1=O [Example 53, 2,4-dimethyl-6-[3-oxo-4-(2-trifluoromethyl-benzoyl)-piperazin-1-yl]-2H-[1,2,4]triazine-3,5-dione]"
2,132,"Cn1nc(N2CCN(C(=O)c3ccccc3)CC2)c(=O)n(C)c1=O [Example 46, 6-(4-benzoyl-piperazin-1-yl)-2,4-dimethyl-2H-[1,2,4]triazine-3,5-dione]"
3,119,"Cn1nc(N2CCN(C(=O)c3ccccc3Br)CC2)c(=O)n(C)c1=O [Example 45, 6-[4-(2-bromo-benzoyl)-piperazin-1-yl]-2,4-dimethyl-2H-[1,2,4]triazine-3,5-dione]"
4,92,"Cn1nc(N2CCN(C(=O)c3cccc(C(F)(F)F)c3)CC2)c(=O)n(C)c1=O [Example 44, 2,4-dimethyl-6-[4-(3-trifluoromethyl-benzoyl)-piperazin-1-yl]-2H-[1,2,4]triazine-3,5-dione]"
5,93,"Cn1nc(N2CCN(C(=O)Oc3cccc(C(F)(F)F)c3)CC2)c(=O)n(C)c1=O [Example 51, 4-(2,4-dimethyl-3,5-dioxo-2,3,4,5-tetrahydro-[1,2,4]triazin-6-yl)-piperazine-1-carboxylic Acid 3-trifluoromethyl-phenyl Ester]"
6,58,"CC(C)C(C(=O)N1CCN(c2nn(C)c(=O)n(C)c2=O)CC1)c1ccc(Cl)cc1 (centres unmarked) [Example 49, 6-{4-[2-(4-chloro-phenyl)-3-methyl-butyryl]-piperazin-1-yl}-2,4-dimethyl-2H-[1,2,4]triazine-3,5-dione]"
7,60,"Cc1ccccc1C(=O)N1CCN(c2nn(C)c(=O)n(C)c2=O)CC1 [Example 43, 2,4-dimethyl-6-[4-(2-methyl-benzoyl)-piperazin-1-yl]-2H-[1,2,4]triazine-3,5-dione]"
8,90,"Cn1nc(N2CCN(C(=O)c3cc(C(F)(F)F)ccc3C(F)(F)F)CC2)c(=O)n(C)c1=O [Example 40, 6-[4-(2,5-Bis-trifluoromethyl-benzoyl)-piperazin-1-yl]-2,4-dimethyl-2H-[1,2,4]triazine-3,5-dione]"
9,128,"Cn1nc(N2CCN(C(=O)c3ccc(F)cc3C(F)(F)F)CC2)c(=O)n(C)c1=O [Example 41, 6-[4-(4-fluoro-2-trifluoromethyl-benzoyl)-piperazin-1-yl]-2,4-dimethyl-2H-[1,2,4]triazine-3,5-dione]"
10,116,"Cn1nc(N2CCC(Cc3cc(C(F)(F)F)ccc3F)CC2)c(=O)n(C)c1=O [Example 39, 6-[4-(2-fluoro-5-trifluoromethyl-benzyl)-piperidin-1-yl]-2,4-dimethyl-2H-[1,2,4]triazine-3,5-dione]"
11,163,Cn1nc(N2CCN(c3cccc(C(F)(F)F)c3)CC2)c(=O)n(C)c1=O
12,163,"Cn1cc(N2CCN(C(=O)c3ccccc3C(F)(F)F)CC2)c(=O)n(C)c1=O [Example 62, 1,3-dimethyl-5-[4-(2-trifluoromethyl-benzoyl)-piperazin-1-yl]-1H-pyrimidine-2,4-dione]"
